Values of other authors, collected in US20260272825A1, “LEVONORGESTREL AND COMPOSITIONS COMPRISING THE SAME” (CHEMO RESEARCH, S.L., priority 2023, published 2026).

Tested on: women

C[C@]12CCC3=C4CCC(=O)C=C4CC[C@H]3[C@@H]1CC[C@@]2(O)CC#N [DNG, Dienogest]
Ovulation inhibition / ovarian activity, in words (2 mg daily): provides ovulation inhibition, but ovarian activity is not completely suppressed

C#C[C@]1(OC(C)=O)CC[C@H]2[C@@H]3CCC4=CC(=O)CC[C@@H]4[C@H]3CC[C@@]21C [NETA, norethisterone acetate]
Dosage providing ovulation inhibition (given continuously over 28 days): ≥ 0.35 mg/daily

C#C[C@]1(O)CC[C@H]2[C@@H]3CCC4=CCCC[C@@H]4[C@H]3C(=C)C[C@@]21CC [desogestrel]
Cycles with ovulation inhibited (POP containing desogestrel 0.075 mg): at least 98%
